The results in this text go back to ChEMBL document CHEMBL1201862, “PubChem BioAssay data set” (2004).

Some test systems named below: SF-295; NCI/ADR-RES; 786-0; SNB-19; RXF 393; LOX IMVI; UACC-257; HT-29; SK-MEL-5; Malme-3M; MDA-MB-435; OVCAR-5; COLO 205; HOP-92; SN12C; SK-MEL-2; CCRF-CEM; OVCAR-8; HCT-15; UACC-62.
Common to all, as to assay: NCI-60 cell line screen, 48 h

SMILES strings stand for the structures.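 Grown in 96-well plates, cells were treated for 48 hours with each compound at five concentrations. Insufficient inhibition: endpoint recorded as highest concentration tested. GI50 = concentration required for 50% inhibition of growth.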 The source made the active and inactive calls. Rule as the data show it: active = GI50 up to about 1.1 µM and inactive = higher.

As to `N=C(N)NC(=N)Nc1ccc(S(=O)(=O)O)cc1`, the GI50 in the assay with SF-295, in the assay on NCI/ADR-RES, in the assay on 786-0, in the assay with SNB-19, in the assay with RXF 393 and with LOX IMVI was > 100 µM (inactive) each time. Further, the GI50 with UACC-257, in the assay on HT-29, in the assay on SK-MEL-5, in the assay on Malme-3M, with MDA-MB-435 and in the assay on OVCAR-5 was > 100 µM (inactive) each time. For the same molecule, the GI50 with COLO 205 was > 100 µM (inactive); with HOP-92, 77.8 µM (inactive); with SN12C, > 100 µM (inactive); with SK-MEL-2, > 100 µM (inactive); with CCRF-CEM, > 100 µM (inactive); in the assay on OVCAR-8, > 100 µM (inactive). The results for the GI50 in the assay with HCT-15 and with UACC-62 were above 100 µM and > 100 µM (inactive), respectively.

Take `O=C(NCCNCCNCCNC(=O)c1cc(-c2ccccc2)nc2ccccc12)c1cc(-c2ccccc2)nc2ccccc12`: the GI50 in the assay on SF-295 is 1.67 µM (inactive); in the assay on NCI/ADR-RES, 13.4 µM (inactive); with 786-0, 1.66 µM (inactive); in the assay on SNB-19 it was 3.79 µM (inactive); in the assay with RXF 393 it was 2.02 µM (inactive); in the assay with LOX IMVI, 1.56 µM (inactive). Further, the GI50 with UACC-257 is 1.72 µM (inactive); with HT-29, 1.7 µM (inactive); in the assay on SK-MEL-5, 1.52 µM (inactive); in the assay with Malme-3M it was 1.87 µM (inactive); in the assay with MDA-MB-435, 1.81 µM (inactive); in the assay on OVCAR-5, 1.87 µM (inactive). The GI50 is 1.99 µM (inactive) with COLO 205; 1.92 µM (inactive) in the assay on HOP-92; 3.07 µM (inactive) with SN12C; 1.54 µM (inactive) with SK-MEL-2; 2.28 µM (inactive) in the assay on CCRF-CEM; 2.08 µM (inactive) in the assay on OVCAR-8. In addition, the GI50 in the assay on HCT-15 is 7.08 µM; in the assay on UACC-62, 2.05 µM (inactive).

`COc1cc(C(=O)OCCn2[nH]c(-c3ccc(Cl)cc3)nc2=S)cc(OC)c1OC`: the GI50 was 44.7 µM (inactive) with SF-295; 57 µM (inactive) with NCI/ADR-RES; 62.8 µM (inactive) with 786-0; > 100 µM (inactive) in the assay with SNB-19; 1.33 µM (inactive) in the assay with RXF 393; 72.4 µM (inactive) with LOX IMVI. The GI50 in the assay with UACC-257 was 44.1 µM (inactive); in the assay with HT-29, > 100 µM (inactive); in the assay on SK-MEL-5 it was 48.2 µM (inactive); in the assay on Malme-3M, 45.5 µM (inactive); in the assay with MDA-MB-435, 51.1 µM (inactive); with OVCAR-5, > 100 µM (inactive). Further, the GI50 in the assay with COLO 205 is > 100 µM (inactive); with HOP-92 it was 27.5 µM (inactive); in the assay with SN12C it was 91.8 µM (inactive); in the assay with SK-MEL-2 it was > 100 µM (inactive); with CCRF-CEM it was 33 µM (inactive); in the assay on OVCAR-8 it was 90.8 µM (inactive). Moreover, the GI50 was 36 µM in the assay with HCT-15 and > 100 µM (inactive) with UACC-62.

In the case of `CCOC(=O)c1sc2[n+](c1C)C(=O)/C(=C/c1ccccc1Cl)S2`, the GI50 was 0.324 µM (active) in the assay on SF-295; 0.342 µM (active) with NCI/ADR-RES; 0.618 µM (active) with 786-0; 0.579 µM (active) in the assay with SNB-19; 15.3 µM (inactive) in the assay with RXF 393; 0.851 µM (active) in the assay on LOX IMVI. The GI50 in the assay with UACC-257 was 4.83 µM (inactive); in the assay with HT-29, 3.44 µM (inactive); in the assay with SK-MEL-5, 0.421 µM (active); in the assay with Malme-3M it was 11 µM (inactive); in the assay with MDA-MB-435 it was 0.281 µM (active); in the assay with OVCAR-5, 14.7 µM (inactive). In addition, the GI50 is 3.13 µM (inactive) with COLO 205; 5.9 µM (inactive) in the assay on HOP-92; 14.3 µM (inactive) in the assay with SN12C; 9.35 µM (inactive) in the assay with SK-MEL-2; 15.3 µM (inactive) with CCRF-CEM; 1.01 µM (active) in the assay on OVCAR-8. Moreover, the GI50 is 0.834 µM in the assay on HCT-15 and 0.447 µM (active) in the assay on UACC-62.

On to `CC(C)C(C)C(O)C(O)C(C)C1CCC2C3COC(=O)C4CC(O)C(O)CC4(C)C3CCC12C` (stereo not given), for which the GI50 was 78.5 µM (inactive) with SF-295; > 100 µM (inactive) in the assay with NCI/ADR-RES; > 100 µM (inactive) in the assay on 786-0; 28.1 µM (inactive) in the assay with SNB-19; 20.2 µM (inactive) in the assay on RXF 393; > 100 µM (inactive) in the assay with LOX IMVI. Also, the GI50 in the assay with UACC-257 is > 100 µM (inactive); in the assay on HT-29, 35.9 µM (inactive); in the assay with SK-MEL-5, 35 µM (inactive); in the assay on Malme-3M, > 100 µM (inactive); in the assay on MDA-MB-435, > 100 µM (inactive); in the assay on OVCAR-5, > 100 µM (inactive). Also, the GI50 in the assay on COLO 205 was 94 µM (inactive); in the assay on HOP-92, 32.8 µM (inactive); with SN12C it was 33.7 µM (inactive); in the assay on SK-MEL-2, > 100 µM (inactive); in the assay on CCRF-CEM it was 22.8 µM (inactive); with OVCAR-8 it was 62.8 µM (inactive). In addition, the GI50 with HCT-15 is 66.1 µM; with UACC-62 it was > 100 µM (inactive).

On to `CC(C)c1cccc(C(C)C)c1NC(=O)/C(CC(=O)CC(c1ccccc1)c1c(O)c2ccccc2oc1=O)=N/O` (stereo not given), for which the GI50 with SF-295, in the assay with NCI/ADR-RES, with 786-0, in the assay on SNB-19, with RXF 393 and with LOX IMVI was > 100 µM (inactive) throughout. Further, the GI50 was > 100 µM (inactive) in the assay on UACC-257; > 100 µM (inactive) in the assay with HT-29; > 100 µM (inactive) in the assay on SK-MEL-5; 95.9 µM (inactive) in the assay on Malme-3M; > 100 µM (inactive) in the assay with MDA-MB-435; > 100 µM (inactive) in the assay with OVCAR-5. The GI50 in the assay with COLO 205, in the assay on HOP-92, with SN12C, in the assay with SK-MEL-2, in the assay with CCRF-CEM and in the assay on OVCAR-8 was > 100 µM (inactive) in each case. In addition, the GI50 is above 100 µM with HCT-15 and > 100 µM (inactive) with UACC-62.

For the molecule `CC(=O)O[C@H]1C(=O)[C@@]2(C)[C@H]([C@H](OC(=O)c3ccccc3)[C@]3(O)C[C@H](OC(=O)[C@H](O)[C@@H](NC(=O)C(C)(C)C)c4ccccc4)C(C)=C1C3(C)C)[C@]1(OC(C)=O)CO[C@@H]1C[C@@H]2O`, the GI50 is 0.29 µM (active) with SF-295; > 10 µM (inactive) in the assay with NCI/ADR-RES; 0.324 µM (active) in the assay with 786-0; 2.35 µM (inactive) in the assay with SNB-19; 0.188 µM (active) in the assay on RXF 393; 0.0542 µM (active) with LOX IMVI. The GI50 in the assay on UACC-257 was 0.127 µM (active); in the assay on HT-29 it was 0.0414 µM (active); in the assay on SK-MEL-5 it was 0.0435 µM (active); in the assay on Malme-3M, 0.165 µM (active); with MDA-MB-435, 0.0158 µM (active); in the assay on OVCAR-5, 0.508 µM (active). The GI50 in the assay on COLO 205 is 0.0444 µM (active); with HOP-92, 0.535 µM (active); with SN12C, 0.0807 µM (active); in the assay with SK-MEL-2 it was 0.0736 µM (active); in the assay with CCRF-CEM, 0.0397 µM (active); with OVCAR-8, 0.0668 µM (active). Moreover, the GI50 in the assay with HCT-15 is 1.41 µM; with UACC-62, 0.0485 µM (active).
